Experiments:
Type in all cases: in vivo, mouse
HSCs = test: Competitive HSC transplantation, bone marrow repopulation; conditions: ApoE^−/− donor mice treated before HSC harvest (NAC 4 weeks; SB203580, PD98059 2 weeks)
Description: HSC were purified from freshly harvested bone marrow mononuclear cells as c-Kit^+Sca-1^+CD90.1^lowLin^− by FACS sorting. Recipient mice were C57BL/6 (WT) on standard chow. Recipients underwent lethal irradiation (1100 Rads delivered in 2 doses 3 hr apart). Immediately after the 2nd irradiation, recipients were anesthetized (2% isoflurane) and 10^6 HSC/0.1 ml sterile PBS were transplanted via retro-orbital injection. Mice were followed for 12 weeks before study or administration of AOM.
The functional consequence of this loss of quiescence by competitive transplantation was investigated next, insofar as the presence of quiescent HSC are critical for successful bone marrow reconstitution. HSCs from CD45.2 ApoE^−/− or HCD mice were mixed 1:1 with CD45.1 WT HSCs and then transplanted into lethally irradiated CD45.1 WT recipients.
Activation of p38 MAPK reduces HSC quiescence in Atm^−/− mice. To evaluate this phenomena in hypercholesterolemic mice, ApoE^−/− and WT mice were treated with the selective p38 MAPK inhibitor SB203580 or the MEK 1 inhibitor PD98059 for 2 weeks prior to harvest of HSCs for transplant. CD45.2 ApoE^−/− or WT HSCs with mixed 1:1 with CD45.1 WT HSCs and transplanted into lethally irradiated CD45.1 recipient mice.

Notch1 = Notch1 expression in HSCs, early T progenitor cells and thymocytes (Example 6); conditions: hypercholesterolemic mice, 4 weeks
Description: Cells were stained with monoclonal antibodies conjugated to various fluoroprobes. These antibodies included: Notch1, cKit (2B8), Sca-1 (E13-161.7), CD4 (L3T4), CD8 (53-6.72), CD90.1, CD25, CD44, TCRβ, NK1.1, γδTCR, CD45.1, CD45.2. The lineage cocktail consisted of CD4, CD8, B220 (RA3-6B2), TER-119, Mac-1 (MI/70), and Gr-1 (RB6-8C5). All antibodies were purchased from BD Bioscience (San Diego, Calif.). FACS analysis was carried out on a FACS Diva.
The Notch signaling pathways are expressed extensively in the hematopoietic system. Notch signaling dominates the regulation of proliferation, self-renewal, and lineage commitment of HSCs in the bone marrow as well as their downstream differentiation and maturation in the thymus (23-28). Moreover, Notch1 appears to participate in the differentiation of the unique T cell subsets, NKT cells and γδT cells (29-32). In this context, the mechanistic basis between HSC oxidant stress and aberrant lineage specification toward NKT and γδT cells in hypercholesterolemic mice was evaluated by determining Notch expression in HSC, bone marrow T cell progenitors, and immature thymocytes. […] Notch1 expression was evaluated in HSCs, early T progenitor cells, and thymocytes differs between ApoE^−/− and WT mice. […] Notch1 expression also was evaluated in HSCs, early T progenitor cells, and thymocytes differs between HCD and WT mice. […]

Fyn = Fyn expression in total thymocyte population; conditions: ApoE^−/− and HCD mice
Description: Fyn, a member of the Src family of tyrosine kinases, is a critical participant in NKT cell development (33,34). […] FIGS. 55A-55C show Thymocyte Fyn expression is reduced in hypercholesterolemic mice. […] Representative western blots from 3 mice in each group, all run on the same gel, are shown. […] However, in DN3 and DN4 thymocytes, Fyn mRNA expression was less in ApoE^−/− than in WT mice. m±sd, *p<0.05 vs. WT; n=4 mice per group. (C) siRNA for Notch1 reduced mRNA expression of Fyn in WT thymocytes in vitro, with a threshold observed at 1.0 μg siRNA. m±sd, n=3 mice; *p<0.05 vs. random RNA. A representative western blot showing a single experiment run on the same gel is shown. […] These findings indicate that Notch1 and Fyn expression are linked, and that the reduced NKT expression in hypercholesterolemic mice is due, in part, to the Notch1 dependent reduction of Fyn expression in thymocytes. Finally, Fyn expression was determined in the total thymocyte population from WT recipient mice transplanted with ApoE^−/−- or WT-derived HSCs. Thymocyte Fyn expression in WT recipients transplanted with ApoE^−/−-derived HSCs was less than half that observed in WT recipients transplanted with WT-derived HSCs (FIG. 56). […] Fyn expression in thymocytes from the Apoe→WT group was less than in the WT→WT group. m±sd; n=4; *p<0.05 vs. WT→WT group. […]

[1] = test system: hematopoietic stem cells (HSCs); test: DCF-DA staining of HSCs from hypercholesterolemic mice (Example 6); conditions: ApoE^−/− and HCD mice, 100 mg/Kg i.p. every other day for 4 weeks
Description: All mice were purchased from Jackson Laboratories (Bar Harbor, Me.) and were maintained in the mouse barrier facility. Care of mice was in accordance with NIH guidelines and the Institutional Animal Care and Use Committee of the University of Massachusetts Medical School approved all protocols. Mice were kept on a 12 hr day/night schedule and were allowed free access to chow and water. ApoE^−/− and WT mice were fed standard mouse chow (5.4 g fat/100 g diet, 0% cholesterol). HCD mice were fed a diet with 10 g fat/100 g diet, […] (Research Diets, New Brunswick, N.J.). […] Azoxymethane (AOM) was given by intraperitoneal injection (10 mg/Kg weekly for 3 weeks); 1% dextran sodium sulfate was added to the drinking water for the Pt week after AOM treatment. It is known that hypercholesterolemia induces oxidant stress in many cell types. […] FIGS. 49A-49C show hypercholesterolemia increases oxidant levels in hematopoietic stem cells. […] (B) Representative photomicrograph showing oxLDL-staining in HSC and BM-MNC from WT and ApoE^−/− mice. (C) Regression of mean polyp number/mouse on the % of HSC staining for DCF-DA. […] Statistical analysis was carried out using the means for each group. […] One of the principal means by which hypercholesterolemia induces oxidant stress is via the generation of oxidized low density lipoprotein (oxLDL).

ApoE^−/−-derived HSCs = test: HSC transplantation into lethally irradiated WT recipients; conditions: 12 weeks after transplant; ApoE^−/− donors pretreated 4 weeks
Description: It was next determined the oxidant status of HSCs transplanted into WT mice. To this end, lethally irradiated WT mice were transplanted with HSCs from WT or ApoE^−/− mice, or with HSCs harvested from ApoE^−/− mice pretreated with NAC for 4 weeks. […] Numbers in each representative FACS analysis are the m±sd for that group; n=5; *p<0.05 vs. WT→WT group; †p<0.05 for ApoE+NAC→WT vs. Apoe→WT.

CC(=O)N[C@@H](CS)C(=O)O [NAC, N-acetylcysteine]
percentage of CD45.2^+ bone marrow mononuclear cells 12 weeks after competitive transplantation (HSCs): significantly increased the percentage of CD45.2^+ mononuclear cells in recipient bone marrow | differences in Notch1 expression in HSCs, T progenitor cells and thymocytes (Notch1): significantly reversed by in vivo treatment with NAC for 4 weeks | expression of Fyn in the total thymocyte population (Fyn): restored in vivo by treatment with NAC | DCF-DA staining in HSCs [1]: significantly reversed | percentage of γδT cells in peripheral blood and NKT cells in thymus and peripheral blood of WT recipients (ApoE^−/−-derived HSCs): significantly less in WT recipients transplanted with ApoE^−/−-derived HSCs than WT mice transplanted with WT HSCs, or HSCs harvested from NAC-pretreated ApoE^−/− donor mice
